Measured values taken from patent US10189788B2, “Substituted N,2-diarylquinoline-4-carboxamides and the use thereof as anti-inflammatory agents” (BAYER PHARMA AKTIENGESELLSCHAFT, priority 2014, dated 2019).

Tests used:
Human FP Receptor [1] = target: T1, Human FP Receptor (Homo sapiens (Human), UniProt P43088); assay: In vitro test of inhibition of human FP receptor activity, variant B-1A (PGF2α-induced calcium flux in FP-expressing CHEM1 cells); assay type: cell-based; details: calcium flux induced by 3 nM PGF2α, Fluo-8, some mean values from multiple determinations
T1 sequence (P43088 whole entry): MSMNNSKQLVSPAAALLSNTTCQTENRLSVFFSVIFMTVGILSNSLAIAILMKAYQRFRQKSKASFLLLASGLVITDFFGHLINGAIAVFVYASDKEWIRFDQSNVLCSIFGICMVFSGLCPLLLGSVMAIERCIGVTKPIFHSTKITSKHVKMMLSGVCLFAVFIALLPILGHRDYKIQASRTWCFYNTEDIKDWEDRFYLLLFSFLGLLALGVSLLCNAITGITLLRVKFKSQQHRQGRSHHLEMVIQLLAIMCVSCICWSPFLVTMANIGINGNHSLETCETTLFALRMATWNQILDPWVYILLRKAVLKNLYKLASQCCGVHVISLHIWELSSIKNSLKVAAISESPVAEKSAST
Text: • BSA bovine serum albumin • CRTH2 chemoattractant receptor-homologous molecule expressed on T helper type 2 cells • DMEM Dulbecco's modified Eagle's medium • DMSO dimethyl sulfoxide • DP PGD2 receptor • EC50 half-maximum effective concentration • em. emission • EP PGE2 receptor • ex. excitation • FCS fetal calf serum • FP PGF2α receptor • HEPES 2-[4-(2-hydroxyethyl)piperazin-1-yl]ethanesulfonic acid • IC50 half-maximum inhibitory concentration • IP PGI2 receptor • MES 2-(N-morpholino)ethanesulfonic acid • Pen/Strep penicillin/streptomycin • PGD2 prostaglandin D2 • PGE2 prostaglandin E2 • PGF2α prostaglandin F2α • PGI2 prostaglandin […] • TC tissue culture • TP thromboxane A2 receptor • Tris tris(hydroxymethyl)aminomethane • v/v volume to volume ratio (of a solution) • w/w weight to weight ratio (of a solution) B-1.

Human FP Receptor [2] = target: T1, Human FP Receptor; assay: In vitro test of inhibition of human FP receptor activity, variant B-1B (PGF2α-induced calcium flux in recombinant FP-expressing CHO cells with GCaMP6); assay type: cell-based; details: recombinant FP-expressing CHO cells with GCaMP6, calcium flux induced by 3 nM PGF2α, some mean values from multiple determinations
Text: 470 nm/em. 525 nm in a fluorescence measuring instrument (FLIPR Tetra®, MolecularDevices) for 120 seconds.

IC50 (Human FP Receptor [1]) | Structure (SMILES) | IC50 (Human FP Receptor [2])
– | O=C(O)c1ccc(NC(=O)c2c(F)c(-c3ccccc3)nc3ccc(Br)cc23)c(F)c1 [Example 73, 4-{[(6-Bromo-3-fluoro-2-phenylquinolin-4-yl)carbonyl]amino}-3-fluorobenzoic acid] | 0.098 µM
0.033 µM | Cc1c(-c2ccccc2)nc2cc(Cl)c(Cl)cc2c1C(=O)Nc1ccc(C(=O)O)cc1F [Example 42, 4-{[(6,7-Dichloro-3-methyl-2-phenylquinolin-4-yl)carbonyl]amino}-3-fluorobenzoic acid] | –
0.097 µM | CCS(=O)(=O)c1cc(C(=O)O)c(OC)cc1NC(=O)c1c(C)c(-c2ccccc2)nc2ccc(Br)cc12 [Example 27, 4-{[(6-Bromo-3-methyl-2-phenylquinolin-4-yl)carbonyl]amino}-5-(ethylsulfonyl)-2-methoxybenzoic acid] | –
0.033 µM | Cc1c(-c2cccc(F)c2)nc2ccc(Br)cc2c1C(=O)Nc1ccc(C(=O)O)cc1F [Example 44, 4-({[6-Bromo-2-(3-fluorophenyl)-3-methylquinolin-4-yl]carbonyl}amino)-3-fluorobenzoic acid] | –
0.102 µM | Cc1c(C(=O)Nc2ccc(C(=O)O)cc2SC(F)(F)F)c2cc(Br)ccc2[n+]([O-])c1-c1ccccc1 [Example 54, 4-{[(6-Bromo-3-methyl-1-oxido-2-phenylquinolin-4-yl)carbonyl]amino}-3-[(trifluoromethyl)sulfanyl]benzoic acid] | –
0.278 µM | Cc1c(-c2ccccc2)nc2ccc(Br)cc2c1C(=O)Nc1ccc(C(=O)O)cc1C#N [Example 16, 4-{[(6-Bromo-3-methyl-2-phenylquinolin-4-yl)carbonyl]amino}-3-cyanobenzoic acid] | –
0.282 µM | Cc1c(-c2ccccc2)nc2ccc(Br)cc2c1C(=O)Nc1cc(F)c(C(=O)O)cc1F [Example 66, 4-{[(6-Bromo-3-methyl-2-phenylquinolin-4-yl)carbonyl]amino}-2,5-difluorobenzoic acid] | –
0.22 µM | COc1c(-c2ccccc2)nc2ccc(Br)cc2c1C(=O)Nc1ccc(C(=O)O)cc1F [Example 74, 4-{[(6-Bromo-3-methoxy-2-phenylquinolin-4-yl)carbonyl]amino}-3-fluorobenzoic acid] | –
0.031 µM | Cc1c(-c2ccccc2)nc2ccc(Br)cc2c1C(=O)Nc1ccc(C(=O)O)cc1S(=O)(=O)C(F)(F)F [Example 53, 4-{[(6-Bromo-3-methyl-2-phenylquinolin-4-yl)carbonyl]amino}-3-[(trifluoromethyl)sulfonyl]benzoic acid] | –
0.027 µM | COCS(=O)(=O)c1cc(C(=O)O)ccc1NC(=O)c1c(C)c(-c2ccccc2)nc2ccc(Br)cc12 [Example 60, 4-{[(6-Bromo-3-methyl-2-phenylquinolin-4-yl)carbonyl]amino}-3-[(methoxymethyl)sulfonyl]benzoic acid] | –
0.057 µM | Cc1c(-c2ccccc2)nc2ccc(Br)cc2c1C(=O)Nc1ccc(C(=O)O)cc1OC(F)(F)F [Example 23, 4-{[(6-Bromo-3-methyl-2-phenylquinolin-4-yl)carbonyl]amino}-3-(trifluoromethoxy)benzoic acid] | –
0.56 µM | CCCc1c(-c2ccccc2)nc2ccc(Br)cc2c1C(=O)Nc1ccc(C(=O)O)cc1F [Example 40, 4-{[(6-Bromo-2-phenyl-3-propylquinolin-4-yl)carbonyl]amino}-3-fluorobenzoic acid] | –
0.795 µM | Cc1c(-c2ccccc2)nc2ccc(Br)cc2c1C(=O)Nc1ccc(C(=O)O)c(F)c1 [Example 8, 4-{[(6-Bromo-3-methyl-2-phenylquinolin-4-yl)carbonyl]amino}-2-fluorobenzoic acid] | –
0.017 µM | O=C(O)c1ccc(NC(=O)c2c(Cl)c(-c3ccccc3)nc3ccc(Br)cc23)c(F)c1 [Example 76, 4-{[(6-Bromo-3-chloro-2-phenylquinolin-4-yl)carbonyl]amino}-3-fluorobenzoic acid] | –
0.049 µM | Cc1c(-c2ccccc2)nc2ccc(Br)c(Cl)c2c1C(=O)Nc1ccc(C(=O)O)cc1F [Example 55, 4-{[(6-Bromo-5-chloro-3-methyl-2-phenylquinolin-4-yl)carbonyl]amino}-3-fluorobenzoic acid] | –
0.093 µM | Cc1c(-c2ccccc2)nc2ccc(C(F)(F)F)cc2c1C(=O)Nc1ccc(C(=O)O)cc1F [Example 34, 3-Fluoro-4-({[3-methyl-2-phenyl-6-(trifluoromethyl)quinolin-4-yl]carbonyl}amino)benzoic acid] | –
0.88 µM | Cc1c(-c2ccccc2)nc2ccc(Br)cc2c1C(=O)Nc1cnc(C(=O)O)nc1 [Example 4, 5-{[(6-Bromo-3-methyl-2-phenylquinolin-4-yl)carbonyl]amino}pyrimidine-2-carboxylic acid] | –
0.12 µM | Cc1c(C(=O)Nc2ccc(C(=O)O)cc2F)c2cc(Br)ccc2[n+]([O-])c1-c1ccccc1 [Example 49, 4-{[(6-Bromo-3-methyl-1-oxido-2-phenylquinolin-4-yl)carbonyl]amino}-3-fluorobenzoic acid] | –
0.124 µM | CSc1cc(C(=O)O)ccc1NC(=O)c1c(C)c(-c2ccccc2)nc2ccc(Br)cc12 [Example 24, 4-{[(6-Bromo-3-methyl-2-phenylquinolin-4-yl)carbonyl]amino}-3-(methylsulfanyl)benzoic acid] | –
0.079 µM | Cc1c(-c2ccccc2)nc2ccc(Br)cc2c1C(=O)Nc1ncc(C(=O)O)cc1F [Example 6, 6-{[(6-Bromo-3-methyl-2-phenylquinolin-4-yl)carbonyl]amino}-5-fluoronicotinic acid] | –
0.203 µM | Cc1c(-c2ccccc2)nc2ccc(Cl)cc2c1C(=O)Nc1ccc(C(=O)O)cc1F [Example 59, 4-{[(6-Chloro-3-methyl-2-phenylquinolin-4-yl)carbonyl]amino}-3-fluorobenzoic acid] | –
0.027 µM | O=C(O)c1ccc(NC(=O)c2c(C3CC3)c(-c3ccccc3)nc3ccc(Br)cc23)c(F)c1 [Example 77, 4-{[(6-Bromo-3-cyclopropyl-2-phenylquinolin-4-yl)carbonyl]amino}-3-fluorobenzoic acid] | –
0.166 µM | Cc1c(-c2ccccc2)nc2ccc(Br)cc2c1C(=O)Nc1ccc(C(=O)O)cc1 [Example 1, 4-{[(6-Bromo-3-methyl-2-phenylquinolin-4-yl)carbonyl]amino}benzoic acid] | –
0.19 µM | CCc1c(-c2ccccc2)nc2ccc(Br)cc2c1C(=O)Nc1ccc(C(=O)O)cc1F [Example 39, 4-{[(6-Bromo-3-ethyl-2-phenylquinolin-4-yl)carbonyl]amino}-3-fluorobenzoic acid] | –
0.29 µM | Cc1c(-c2ccccc2)nc2ccc(OC(F)(F)F)cc2c1C(=O)Nc1ccc(C(=O)O)cc1F [Example 35, 3-Fluoro-4-({[3-methyl-2-phenyl-6-(trifluoromethoxy)quinolin-4-yl]carbonyl}amino)benzoic acid] | –

Structure (SMILES) | IC50 (Human FP Receptor [1]) | IC50 (Human FP Receptor [2])
Cc1c(-c2ccccc2)nc2ccc(Br)cc2c1C(=O)Nc1ccc(C(=O)O)cc1F [Example 50, Sodium 4-{[(6-bromo-3-methyl-2-phenylquinolin-4-yl)carbonyl]amino}-3-fluorobenzoate] | 0.037 µM | 0.044 µM
Cc1c(-c2ccccc2)nc2ccc(Br)cc2c1C(=O)Nc1ccc(C(=O)O)cc1F [Example 69, Potassium 4-{[(6-bromo-3-methyl-2-phenylquinolin-4-yl)carbonyl]amino}-3-fluorobenzoate] | 0.104 µM | 0.059 µM
